By TGI is commonly meant the concentration at which net growth stops. A higher TGI goes with lower sensitivity of the cells. A word on the GI50: it is the concentration giving 50% growth inhibition.

Results on 13 molecules are retold here after PubChem BioAssay (NCI).

Holding throughout (experiment): DTP human tumour cell line panel, 48 h
Experiment [1] has as its system HT29 colon.
Experiment [2] concerns HS 578T breast.
Experiment [3] deals with UACC-257 melanoma.
The test system of experiment [4] is BT-549 breast.
Experiment [5] relates to OVCAR-5 ovarian.
For experiment [6], the system named is M14 melanoma.
In experiment [7] the test system is SW-620 colon.
The subject of experiment [8] is KM12 colon.
Experiment [9] has as its system SNB-75 CNS.
For experiment [10], the system named is A549 NSCLC.

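Values below derive from 48-hour exposures of cells grown in 96-well plates, with endpoints linearly interpolated between the two concentrations bracketing the appropriate inhibition level. GI50: concentration for 50% inhibition of growth. TGI denotes the concentration required for complete inhibition of growth.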 Where only a bound is given, the exact number is not on record here.

As to `Cc1cc(N(CCCl)CCCl)ccc1/C=N/NC(=O)Cc1cc(=O)oc2cc(O)ccc12`, the TGI is 31.2 µM in [1]; 56.3 µM in [2]; 58.1 µM in experiment [3]; 34.7 µM in [4]; 93.7 µM in [5]; 35.1 µM in [6]. Besides, the TGI in experiment [7] was 66.9 µM; in experiment [8] it was 36.6 µM; in experiment [9] it was more than 100 µM; in experiment [10], 42.2 µM.
`Cc1nc(C(N)=S)sc1C(=O)C/C(=N/N)C(=O)Nc1ccc(Cl)cc1`: the TGI in [1], in experiment [2], in experiment [3], in [4], in experiment [5] and in [6] was more than 100 µM in each case. In addition, the TGI in experiment [7], in experiment [8], in [9] and in experiment [10] was more than 100 µM in each case.
For `C=CC1=C(C)C2=NC1=CC1=NC(=CC3=C(C)C4=C(O)C(C(=O)OC)C(=C5NC(=C2)C(C)C5CCC(=O)OC)C4=N3)C(CC)=C1C` (stereo not given), the TGI in experiment [1], in experiment [2], in [3], in [4], in experiment [5] and in experiment [6] was more than 100 µM in each case. The TGI in experiment [7], in [8], in experiment [9] and in experiment [10] was more than 100 µM each time.
On to `OCC(O)C(O)C(O)/C=N/Nc1nc2ccccc2nc1-c1ccccc1` (stereo not given), for which the GI50 is more than 100 µM in experiment [1]; 83.6 µM in experiment [2]; more than 100 µM in experiment [3]; more than 100 µM in experiment [4]; more than 100 µM in experiment [5]; more than 100 µM in experiment [6]. Further, the GI50 in experiment [7], in experiment [8], in experiment [9] and in [10] was more than 100 µM in each case. Further, the TGI in [1], in experiment [2], in [3], in experiment [4], in [5] and in experiment [6] was more than 100 µM in each case. Also, the concentration for total growth inhibition (TGI) in experiment [7], in experiment [8], in experiment [9] and in experiment [10] was more than 100 µM each time.
Consider `NS(=O)(=O)c1ccc(NC(=O)c2cccc3cc4ccccc4nc23)cc1`, for which the TGI in experiment [1], in experiment [2], in [3], in experiment [4], in experiment [5] and in experiment [6] was more than 100 µM in each case. Further, the total growth inhibition concentration (TGI) in experiment [7], in [8], in experiment [9] and in experiment [10] was more than 100 µM each time.
On to `Cc1c(N=Cc2ccc(N(CCC#N)CCC#N)cc2)c(=O)n(-c2ccccc2)n1C`, for which the TGI in [1], in experiment [2], in experiment [3], in [4], in [5] and in experiment [6] was more than 100 µM in each case. Also, the TGI in experiment [7] was more than 100 µM; in experiment [8], more than 100 µM; in experiment [9] it was 60.1 µM; in experiment [10] it was more than 100 µM.
Consider `O=C1CCS/C(=N\S(=O)(=O)c2ccc(N3N=C4c5ccccc5CC4C3c3cccs3)cc2)N1C(=O)c1ccccc1` (stereo not given), for which the GI50 is 39.6 µM in experiment [1]; 2.85 µM in experiment [2]; 0.334 µM in experiment [3]; 4.77 µM in experiment [4]; 25.8 µM in experiment [5]; 10.8 µM in experiment [6]. Also, the GI50 is 13.1 µM in experiment [7], 29.4 µM in experiment [8], more than 100 µM in [9] and 10.6 µM in [10]. The concentration for total growth inhibition (TGI) in experiment [1] is more than 100 µM; in experiment [2] it was 34.2 µM; in [3], 20.6 µM; in [4], more than 100 µM; in experiment [5], 54.3 µM; in experiment [6] it was 27.2 µM. For the same molecule, the TGI in experiment [7] was more than 100 µM; in [8], 83.1 µM; in experiment [9], more than 100 µM; in experiment [10], 24.3 µM.
In the case of `OCc1ccc(N(CCN2CCCC2)Cc2ccc(F)cc2)cc1Cl`, the GI50 in [1] is 15.6 µM; in experiment [2], 20.9 µM; in [3], 14.7 µM; in [4], 24.8 µM; in [5], 16 µM; in experiment [6], 14.3 µM. For the same molecule, the GI50 was 16.7 µM in experiment [7], 17.4 µM in experiment [8], 12.5 µM in [9] and 6.5 µM in experiment [10]. Further, the TGI is 32.8 µM in experiment [1]; 80.1 µM in experiment [2]; 29 µM in [3]; 86.8 µM in experiment [4]; 40.5 µM in [5]; 30.9 µM in experiment [6]. Moreover, the TGI in experiment [7] came to 32.9 µM; in experiment [8] it was 34.9 µM; in [9] it was 35.3 µM; in experiment [10], 27.9 µM.
In the case of `CCCN(CCSSCCNc1nc(N(C)O)nc(N(C)O)n1)c1nc(N(C)O)nc(N(C)O)n1`, the GI50 in [1] was 7.81 µM; in experiment [2], 25.5 µM; in [3], 22.7 µM; in experiment [4], 7.6 µM; in experiment [5], more than 100 µM; in [6], 5.68 µM. Further, the GI50 in experiment [7] was 6.72 µM; in experiment [8] it was 6.25 µM; in experiment [9], 24.4 µM; in experiment [10], 7.59 µM. For the same molecule, the TGI in experiment [1], in [2], in [3], in experiment [4], in experiment [5] and in experiment [6] was more than 100 µM each time. The TGI in [7], in [8], in experiment [9] and in experiment [10] was more than 100 µM each time.
As for `COc1cc(/C=C2\C(=O)Nc3cccc(Cl)c32)cc(OC)c1OC`, the GI50 in experiment [1] was more than 100 µM; in experiment [2], more than 100 µM; in experiment [3], more than 100 µM; in [4], more than 100 µM; in [5], 46.4 µM; in experiment [6], more than 100 µM. Also, the GI50 in [7] was more than 100 µM; in experiment [8], more than 100 µM; in experiment [9], 21.9 µM; in experiment [10], more than 100 µM. The TGI in experiment [1], in experiment [2], in [3], in [4], in experiment [5] and in experiment [6] was more than 100 µM in each case. Besides, the concentration for total growth inhibition (TGI) in [7] is more than 100 µM; in [8], more than 100 µM; in [9], 84 µM; in experiment [10], more than 100 µM.
As to `CNCCCNCCCN1C(=O)c2ccc3c4c(ccc(c24)C1=O)C(=O)N(CCCNCc1ccccc1OC)C3=O`, the GI50 in experiment [1] is 0.381 µM; in [2], 3.02 µM; in [3], 1.35 µM; in experiment [4] it was 5.03 µM; in experiment [5], 1.25 µM; in experiment [6], 1.32 µM. Moreover, the GI50 was 0.365 µM in experiment [7], 1.18 µM in experiment [8], 1.11 µM in experiment [9] and 0.577 µM in experiment [10]. For the same molecule, the TGI in experiment [1] worked out at 1.95 µM; in experiment [2], 28.5 µM; in experiment [3], 2.72 µM; in experiment [4], 18.7 µM; in [5], 4.14 µM; in experiment [6], 2.79 µM. Besides, the TGI in experiment [7] is 5.12 µM; in experiment [8] it was 3.36 µM; in experiment [9], 2.51 µM; in experiment [10], 4.97 µM.
On to `COc1ccc(N(C)c2c3ccccc3nc3[nH]c4ccccc4c23)cc1`, for which the GI50 in [1] was 0.617 µM; in experiment [2], 2.55 µM; in experiment [3], 3.48 µM; in experiment [4] it was 1.24 µM; in [5] it was 0.917 µM; in experiment [6] it was 0.837 µM. The GI50 in experiment [7] was 0.582 µM; in experiment [8], 0.296 µM; in experiment [9], 5.19 µM; in experiment [10], 0.724 µM. Further, the TGI is 10.3 µM in [1]; 11 µM in experiment [2]; 10 µM in [3]; 4.39 µM in experiment [4]; 4.57 µM in [5]; 1.67 µM in experiment [6]. The TGI in [7] is 26.4 µM; in experiment [8] it was 1.24 µM; in [9] it was 23.6 µM; in experiment [10] it was 9.19 µM.
For the molecule `CC1(C)CC2(C)CC1CC2NC(=O)CCN1CCOCC1` (stereo not given), the concentration for total growth inhibition (TGI) in [1], in experiment [2], in [3], in [4], in [5] and in experiment [6] was more than 100 µM each time. Besides, the TGI in experiment [7], in experiment [8], in experiment [9] and in [10] was more than 100 µM each time.
